Assay results taken from ChEMBL document CHEMBL3217534, “Glyco-Phospho-Glycero Ether Lipids (GPGEL): synthesis and evaluation as small conductance Ca2+-activated K+ channel (SK3) inhibitors” (Medchemcomm, 2012).
In brackets after ≈: the same amount, converted by molar mass. Activity calls are given as the source filed them. The calls are words filed in the database; no cut-off is given here.

How the values were obtained:
[1] = molecular target: Small conductance calcium-activated potassium channel protein 3 (Rattus norvegicus) (UniProt P70605); assay: Inhibition of recombinant rat SK3 expressed in HEK293T cells assessed as decrease in channel current amplitude at 0 mV holding potential at 10 uM measured for 3 mins by patch clamp assay relative to control; type: cell-based; details: HEK-293T
Chain of Small conductance calcium-activated potassium channel protein 3 (Rattus norvegicus) (P70605 whole entry): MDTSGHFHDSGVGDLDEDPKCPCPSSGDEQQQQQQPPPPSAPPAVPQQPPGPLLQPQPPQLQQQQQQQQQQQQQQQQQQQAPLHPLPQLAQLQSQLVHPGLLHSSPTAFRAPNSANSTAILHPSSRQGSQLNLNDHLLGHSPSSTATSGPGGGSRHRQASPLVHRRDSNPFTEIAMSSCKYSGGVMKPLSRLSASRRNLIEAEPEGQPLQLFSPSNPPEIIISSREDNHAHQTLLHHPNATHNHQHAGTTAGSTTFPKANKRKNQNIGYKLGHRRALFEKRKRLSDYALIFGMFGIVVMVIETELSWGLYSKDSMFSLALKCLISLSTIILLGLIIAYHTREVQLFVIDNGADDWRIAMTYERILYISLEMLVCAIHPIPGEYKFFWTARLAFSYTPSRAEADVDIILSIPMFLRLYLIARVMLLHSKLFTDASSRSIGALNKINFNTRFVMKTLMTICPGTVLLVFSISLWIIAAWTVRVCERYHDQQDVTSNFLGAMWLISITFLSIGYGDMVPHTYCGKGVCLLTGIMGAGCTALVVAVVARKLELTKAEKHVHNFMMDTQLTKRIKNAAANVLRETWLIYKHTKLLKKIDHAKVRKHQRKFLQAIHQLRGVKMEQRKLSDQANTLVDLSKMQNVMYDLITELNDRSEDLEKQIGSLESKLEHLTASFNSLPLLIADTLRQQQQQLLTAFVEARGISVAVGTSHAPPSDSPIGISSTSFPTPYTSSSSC

[2] = molecular target: Small conductance calcium-activated potassium channel protein 3 (Rattus norvegicus) (UniProt P70605); assay: Inhibition of recombinant rat SK3 expressed in HEK293T cells assessed as inhibition of cell migration at 100 nM after 15 hrs by DAPI staining; type: cell-based; details: HEK-293T
HEK-293T [3] = assay: Cytotoxicity against HEK293T cells expressing rat SK3 assessed as cell viability at 10 uM after 48 hrs by MTT assay; type: cell-based; details: human
HEK-293T [4] = assay: Effect on SK3 deficient HEK293T cell migration at 100 nM after 15 hrs by DAPI staining; type: functional, cell-based; details: Homo sapiens
[5] = Solubility of the compound in water; type: physicochemical

Row | Compound | inhibition [1] [%] | inhibition [2] [%] | Activity (HEK-293T [3]) | Activity (HEK-293T [4]) | solubility [5] [µM]
1 | CCCCCCCCCCCCCCCCOCC(COP(=O)(O)OC1O[C@H](CO[C@H]2O[C@H](CO)[C@H](O)[C@H](O)[C@H]2O)[C@@H](O)[C@H](O)[C@H]1O)OC.CCN(CC)CC (some centres not stated) | 65.5 | 40 | Non-toxic | inactive | 
2 | CCCCCCCCCCCCCCCCOCC(COP(=O)(O)OC1O[C@H](CO)[C@@H](O[C@H]2O[C@H](CO)[C@@H](O)[C@H](O)[C@H]2O)[C@H](O)[C@H]1O)OC.CCN(CC)CC (some centres not stated) | 60 | 40 | Non-toxic | inactive | 
3 | CCCCCCCCCCCCCCCCOCC(CO[C@H]1O[C@H](CO)[C@@H](O[C@@H]2O[C@H](CO)[C@H](O)[C@H](O)[C@H]2O)[C@H](O)[C@H]1O)OC (some centres not stated) | 73.2 | 40 | Non-toxic | inactive | 9 (≈ 5.89 µg/mL)
4 | CCCCCCCCCCCCCCCCOCC(COP(=O)(O)O[C@H]1O[C@H](CO)[C@@H](O[C@H]2O[C@H](CO)[C@@H](O)[C@H](O)[C@H]2O)[C@H](O)[C@H]1O)OC.CCN(CC)CC (some centres not stated) | 70.8 | 40 | Non-toxic | inactive | 
5 | CCCCCCCCCCCCCCCCOCC(COP(=O)(O)OC1O[C@H](CO)[C@@H](O[C@@H]2O[C@H](CO)[C@H](O)[C@H](O)[C@H]2O)[C@H](O)[C@H]1O)OC.CCN(CC)CC (some centres not stated) | 69.2 | 40 | Non-toxic | inactive | 16
